# In patent publication US9006464B2, “Substituted cyclopentanes having prostaglandin activity” (Allergan, Inc., priority 2007, dated 2015):
# Experiments:
# [1] = target: T1, EP4 (Homo sapiens, UniProt P35408); assay: EP4 binding (Ki)
# Excerpt: (§1) U.S. patent application Ser. No. 11/553,143, filed on Oct. 26, 2006, incorporated by reference herein, describes the methods used to obtain the in vitro data in Table 1 below.
# [2] = target: T2, EP2 (Homo sapiens, UniProt P43116); assay: EP2 cAMP assay; type: cell-based
# T2 sequence (P43116 whole entry): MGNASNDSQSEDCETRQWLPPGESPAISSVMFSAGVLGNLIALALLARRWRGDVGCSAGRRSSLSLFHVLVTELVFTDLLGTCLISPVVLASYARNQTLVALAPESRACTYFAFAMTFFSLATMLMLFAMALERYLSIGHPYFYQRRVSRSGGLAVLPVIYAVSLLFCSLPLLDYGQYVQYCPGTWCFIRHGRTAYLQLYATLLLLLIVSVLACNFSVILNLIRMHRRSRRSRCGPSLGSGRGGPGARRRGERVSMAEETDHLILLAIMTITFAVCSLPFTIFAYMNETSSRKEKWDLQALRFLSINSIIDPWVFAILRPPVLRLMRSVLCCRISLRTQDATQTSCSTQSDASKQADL
# Excerpt: as §1
# [3] = target: T2, EP2; assay: EP2 binding (Ki)
# Excerpt: as §1
# [4] = target: T3, DP (Homo sapiens, UniProt Q13258); assay: Other receptors Ca2+ assay, DP; type: cell-based; settings: DP receptor
# T3 sequence (Q13258 1-359): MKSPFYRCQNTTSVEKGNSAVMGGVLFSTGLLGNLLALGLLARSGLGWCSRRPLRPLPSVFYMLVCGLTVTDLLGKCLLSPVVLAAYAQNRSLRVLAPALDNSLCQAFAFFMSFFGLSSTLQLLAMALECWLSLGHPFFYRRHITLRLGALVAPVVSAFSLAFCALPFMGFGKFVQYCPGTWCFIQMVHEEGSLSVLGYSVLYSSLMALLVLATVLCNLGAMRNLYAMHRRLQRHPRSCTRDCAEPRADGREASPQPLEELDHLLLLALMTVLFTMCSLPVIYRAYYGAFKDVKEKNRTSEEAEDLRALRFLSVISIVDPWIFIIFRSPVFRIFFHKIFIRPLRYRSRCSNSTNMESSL
# Excerpt: as §1
# [5] = target: T2, EP2; assay: EP2 Ca2+ signal assay; type: cell-based
# Excerpt: as §1
# [6] = target: T1, EP4; assay: EP4 Ca2+ signal assay; type: cell-based
# Excerpt: as §1
# [7] = target: T4, TP (Homo sapiens, UniProt P21731); assay: Other receptors Ca2+ assay, TP; type: cell-based; settings: TP receptor
# T4 sequence (P21731 1-343): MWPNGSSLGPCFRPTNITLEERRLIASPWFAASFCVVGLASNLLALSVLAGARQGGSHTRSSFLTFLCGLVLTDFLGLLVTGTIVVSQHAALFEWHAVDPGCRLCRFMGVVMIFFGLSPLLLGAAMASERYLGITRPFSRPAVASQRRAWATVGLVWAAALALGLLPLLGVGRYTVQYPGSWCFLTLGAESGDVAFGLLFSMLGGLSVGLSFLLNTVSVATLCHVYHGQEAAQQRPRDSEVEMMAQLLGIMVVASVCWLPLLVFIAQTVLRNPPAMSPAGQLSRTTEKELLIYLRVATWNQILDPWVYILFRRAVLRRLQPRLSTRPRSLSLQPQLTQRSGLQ
# Excerpt: as §1
# [8] = target: T5, EP3 (Homo sapiens, UniProt P43115); assay: Other receptors Ca2+ assay, EP3; type: cell-based; settings: EP3 receptor
# T5 sequence (P43115 1-390): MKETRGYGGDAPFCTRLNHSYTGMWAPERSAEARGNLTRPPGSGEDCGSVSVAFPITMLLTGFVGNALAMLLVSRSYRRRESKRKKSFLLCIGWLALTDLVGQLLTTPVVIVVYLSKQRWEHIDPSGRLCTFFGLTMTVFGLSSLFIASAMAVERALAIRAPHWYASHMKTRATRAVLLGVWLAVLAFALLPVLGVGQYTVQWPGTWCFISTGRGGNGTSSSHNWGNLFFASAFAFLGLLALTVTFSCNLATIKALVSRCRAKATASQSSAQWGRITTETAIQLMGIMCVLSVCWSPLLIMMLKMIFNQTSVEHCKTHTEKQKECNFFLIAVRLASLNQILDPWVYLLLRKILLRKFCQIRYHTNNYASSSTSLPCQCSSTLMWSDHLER
# Excerpt: as §1
# [9] = target: T6, EP1 (Homo sapiens, UniProt P34995); assay: Other receptors Ca2+ assay, EP1; type: cell-based; settings: EP1 receptor
# T6 sequence (P34995 1-402): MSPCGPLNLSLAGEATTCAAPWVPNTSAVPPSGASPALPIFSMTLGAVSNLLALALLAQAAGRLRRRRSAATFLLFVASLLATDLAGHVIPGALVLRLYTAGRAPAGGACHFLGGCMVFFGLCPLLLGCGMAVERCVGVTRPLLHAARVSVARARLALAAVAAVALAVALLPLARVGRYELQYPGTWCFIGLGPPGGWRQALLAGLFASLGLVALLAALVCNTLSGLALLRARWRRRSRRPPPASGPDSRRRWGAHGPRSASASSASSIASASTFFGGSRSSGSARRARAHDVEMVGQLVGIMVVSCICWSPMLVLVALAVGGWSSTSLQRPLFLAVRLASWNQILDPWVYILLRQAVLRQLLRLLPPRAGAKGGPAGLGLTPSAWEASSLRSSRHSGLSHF
# Excerpt: as §1
# [10] = system: DOG; assay: Dog ocular hyperemia; type: in vivo; settings: Conc. 0.01 g/100 mL
# Excerpt: (§2) U.S. Pat. No. 7,091,231, incorporated by reference herein, describes the methods used to obtain the in vivo test results presented in Table 2.
# [11] = system: DOG; assay: Dog intraocular pressure test; type: in vivo; settings: Conc. 0.01 g/100 mL
# Excerpt: as §2
# [12] = system: MONKEY; assay: Monkey intraocular pressure test; type: in vivo; settings: Conc. 0.01 g/100 mL
# Excerpt: as §2
# T1 sequence (P35408 whole entry): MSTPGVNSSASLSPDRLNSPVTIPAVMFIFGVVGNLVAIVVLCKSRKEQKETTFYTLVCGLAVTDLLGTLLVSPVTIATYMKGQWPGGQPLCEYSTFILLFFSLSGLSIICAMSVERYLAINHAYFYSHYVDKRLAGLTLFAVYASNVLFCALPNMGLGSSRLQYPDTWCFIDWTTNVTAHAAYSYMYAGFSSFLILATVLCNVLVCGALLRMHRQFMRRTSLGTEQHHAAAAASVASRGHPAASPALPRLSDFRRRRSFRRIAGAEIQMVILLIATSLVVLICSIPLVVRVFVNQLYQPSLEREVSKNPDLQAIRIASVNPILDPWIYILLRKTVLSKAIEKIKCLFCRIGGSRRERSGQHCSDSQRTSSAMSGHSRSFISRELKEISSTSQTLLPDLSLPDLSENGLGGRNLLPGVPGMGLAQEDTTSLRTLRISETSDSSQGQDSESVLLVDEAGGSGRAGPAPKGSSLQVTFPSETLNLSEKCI
SMILES,Ki [1],EC50 [2],Ki [3],EC50 [4],EC50 [5],EC50 [6],EC50 [7],EC50 [8],EC50 [9],DOG Max. hyperemia [10],DOG Max. ΔIOP [11],MONKEY Max. ΔIOP [12]
"O=C(O)c1ccc(CCC[C@@H]2[C@@H](C=CCCCCCO)[C@H](O)C[C@H]2Cl)s1 [Entry 13, 5-{3-[(1R,2R,3R,5R)-5-Chloro-3-hydroxy-2-(7-hydroxy-hept-1-enyl)-cyclopentyl]-propyl}-thiophene-2-carboxylic acid]",2390 nM,3.6 nM,60 nM,253 nM,46 nM,31.4 µM,–,–,–,–,–,–
"O=C(O)c1ccc(CCC[C@@H]2[C@@H](CCCCCCCO)[C@H](O)C[C@H]2Cl)s1 [Entry 11, 5-{3-[(1R,2R,3R,5R)-5-Chloro-3-hydroxy-2-(7-hydroxy-heptyl)-cyclopentyl]-propyl}-thiophene-2-carboxylic acid]",1520 nM,0.3 nM,9 nM,1950 nM,10 nM,23.7 µM,–,–,–,–,–,–
"CCCCCC=C[C@@H]1[C@@H](CCCc2ccc(C(=O)O)s2)[C@H](Cl)C[C@H]1O [Entry 8, 5-[3-((1R,2R,3R,5R)-5-Chloro-2-hept-1-enyl-3-hydroxy-cyclopentyl)-propyl]-thiophene-2-carboxylic acid]",186 nM,8 nM,14 nM,337 nM,112 nM,9.1 µM,230 nM,544 nM,–,–,–,–
"CCCC=C[C@@H]1[C@@H](CCCc2ccc(C(=O)O)s2)[C@H](Cl)C[C@H]1O [Entry 7, 5-[3-((1R,2R,3R,5R)-5-Chloro-3-hydroxy-2-pent-1-enyl-cyclopentyl)-propyl]-thiophene-2-carboxylic acid]",–,55 nM,60 nM,573 nM,303 nM,14.8 µM,249 nM,1160 nM,–,–,–,–
"O=C(O)c1ccc(CCC[C@@H]2[C@@H](CCCCCCCCO)[C@H](O)C[C@H]2Cl)s1 [Entry 10, 5-{3-[(1R,2R,3R,5R)-5-Chloro-3-hydroxy-2-(8-hydroxy-octyl)-cyclopentyl]-propyl}-thiophene-2-carboxylic acid]",–,< 1 nM,5 nM,6130 nM,69 nM,> 10 µM,–,–,–,–,–,–
"CCCCCCCC=C[C@@H]1[C@@H](CCCc2ccc(C(=O)O)s2)[C@H](Cl)C[C@H]1O [Entry 14, 5-[3-((1R,2R,3R,5R)-5-Chloro-3-hydroxy-2-non-1-enyl-cyclopentyl)-propyl]-thiophene-2-carboxylic acid]",1110 nM,4 nM,6 nM,11700 nM,15 nM,> 10 µM,–,3000 nM,–,–,–,–
"CCCCCCCCCC[C@@H]1[C@@H](CCCc2ccc(C(=O)O)s2)[C@H](Cl)C[C@H]1O [Entry 19, 5-(3-((1R,2R,3R,5R)-5-chloro-2-decyl-3-hydroxycyclopentyl)propyl)thiophene-2-carboxylic acid]",7100 nM,2 nM,6 nM,–,1160 nM,> 10 µM,–,–,–,–,–,–
"CCCCCC(O)/C=C/[C@@H]1[C@@H](CCCc2ccc(C(=O)O)s2)[C@H](Cl)C[C@H]1O (single isomer, unassigned) [Entry 15]",4 nM,0.4 nM,7 nM,10 nM,0.8 nM,0.0002 µM,178 nM,6 nM,1.3 nM,–,–,–
"CCCCCC[C@@H]1[C@@H](CCCc2ccc(C(=O)O)s2)[C@H](Cl)C[C@H]1O [Entry 2, 5-[3-((1R,2R,3R,5R)-5-Chloro-2-hexyl-3-hydroxy-cyclopentyl)-propyl]-thiophene-2-carboxylic acid]",754 nM,0.7 nM,4 nM,1780 nM,405 nM,9.38 µM,2990 nM,5990 nM,–,–,–,–
"CCCCCCCCC[C@@H]1[C@@H](CCCc2ccc(C(=O)O)s2)[C@H](Cl)C[C@H]1O [Entry 5, 5-[3-((1R,2R,3R,5R)-5-Chloro-3-hydroxy-2-nonyl-cyclopentyl)-propyl]-thiophene-2-carboxylic acid]",1230 nM,3 nM,1.5 nM,–,21 nM,> 10 µM,–,6660 nM,–,–,–,–
CCCCCCCC[C@@H]1[C@@H](CCCc2ccc(C(=O)OC(C)C)s2)[C@H](Cl)C[C@H]1O [Entry 1-9],–,–,–,–,–,–,–,–,–,0.9,22%,–
"CCCCCCCC[C@@H]1[C@@H](CCCc2ccc(C(=O)OCCO)s2)[C@H](Cl)C[C@H]1O [Entry 1-8, 5-[3-((1R,2R,3R,5R)-5-Chloro-3-hydroxy-2-octyl-cyclopentyl)-propyl]-thiophene-2-carboxylic acid 2-hydroxy-ethyl ester]",–,–,–,–,–,–,–,–,–,2.0,35%,53%
"CCCCC[C@@H]1[C@@H](CCCc2ccc(C(=O)O)s2)[C@H](Cl)C[C@H]1O [Entry 1, 5-[3-((1R,2R,3R,5R)-5-Chloro-3-hydroxy-2-pentyl-cyclopentyl)-propyl]-thiophene-2-carboxylic acid]",–,1 nM,6 nM,2080 nM,74 nM,9.1 µM,187 nM,1740 nM,–,–,–,–
"O=C(O)c1ccc(CCC[C@@H]2[C@@H](C=CCCCCCCO)[C@H](O)C[C@H]2Cl)s1 [Entry 6, 5-{3-[(1R,2R,3R,5R)-5-Chloro-3-hydroxy-2-(8-hydroxy-oct-1-enyl)-cyclopentyl]-propyl}-thiophene-2-carboxylic acid]",–,14 nM,37 nM,1000 nM,531 nM,–,–,–,> 10000 nM,–,–,–
"CCCCCC(O)/C=C/[C@@H]1[C@@H](CCCc2ccc(C(=O)O)s2)[C@H](Cl)C[C@H]1O (single isomer, unassigned) [Entry 16]",577 nM,5 nM,202 nM,7730 nM,26 nM,0.042 µM,–,421 nM,86 nM,–,–,–
"CCCCCCCCC=C[C@@H]1[C@@H](CCCc2ccc(C(=O)O)s2)[C@H](Cl)C[C@H]1O [Entry 9, 5-[3-((1R,2R,3R,5R)-5-Chloro-2-dec-1-enyl-3-hydroxy-cyclopentyl)-propyl]-thiophene-2-carboxylic acid]",695 nM,15 nM,18 nM,10500 nM,512 nM,34.2 µM,–,–,–,–,–,–
"CCCC/C=C/CC[C@@H]1[C@@H](CCCc2ccc(C(=O)O)s2)[C@H](Cl)C[C@H]1O [Entry 18, 5-(3-((1R,2R,3R,5R)-5-chloro-3-hydroxy-2-((E)-oct-3-enyl)cyclopentyl)propyl)thiophene-2-carboxylic acid]",–,2 nM,18 nM,2800 nM,51 nM,0.713 µM,–,593 nM,4930 nM,–,–,–
